# In US20240400606A1, “SMALL MOLECULE ACTIVATORS OF THE IMMUNE SYSTEM” (THE BOARD OF TRUSTEES OF THE UNIVERSITY OF ILLINOIS, priority 2021, published 2024):
# Tested on: whole cell CS levels in MCF-7
# Experiment: Whole cell cholesterol sulfate quantification, MCF-7
# Type: cell-based, human
# Conditions: MCF-7, 6.25 μM compound, 72 hours
# Protocol: (§1) General Whole Cell Cholesterol Sulfate Quantification. 60×15 mm tissue culture dishes were seeded with MCF-7 at 2×10^6 cells/dish or T47D at 1×10^6 cells per dish, 5 mL total media volume, and allowed to adhere overnight. Compounds of interest were dissolved in DMSO. Cells were treated with 25 μL 1.25 mM compound of interest stock (6.25 μM final compound concentration, 0.5% final DMSO concentration) or DMSO for 72 hours. To harvest, media was aspirated, and cells were washed once with PBS before detaching with trypsin. Trypsin was quenched with media. Cells were centrifuged at 300 xg for 3 minutes and supernatant was discarded. Cells were resuspended in media and counted using a Countess 3 automated cell counter (Thermo Fisher Scientific). 1.5×10^6 cells were collected, washed twice with 1 mL PBS, then pelleted and stored at −80° C. until lysis. Cell pellets were resuspended in 200 μL cold 70:30 methanol:water and placed on ice. Cell suspension was sonicated on ice (30%, 10 s on, 20 s off, 1 min total) and continued to be incubated on ice for 30 minutes. Lysate was clarified by centrifugation at 14,100 xg at 4° C. for 30 minutes. 100 μL of supernatant was transferred to an empty Eppendorf tube and submitted for LC-MS/MS quantification (UIUC Metabolomics Center), along with 5 mM cholesterol sulfate sodium salt standard.
# as §1, with “Time Course Whole Cell” for “General Whole Cell”, “2×10^6 cells/dish per dish,” for “2×10^6 cells/dish or T47D at 1×10^6 cells per dish,”, “DMSO for 0 (harvested immediately), 4, 8, 24, 48, or 72 hours.” for “DMSO for 72 hours.”
# Whole Cell Cholesterol Sulfate Quantification with Compound Removal. 60×15 mm tissue culture dishes were seeded with MCF-7 at 2×10^6 cells/dish, 5 mL total media volume, and allowed to adhere overnight. Compounds of interest were dissolved in DMSO. Cells were treated with 25 μL 1.25 mM compound of interest stock (6.25 μM final compound concentration, 0.5% final DMSO concentration) for 0 hours (harvested immediately) or 24 hours. Media was aspirated and replaced with 5 mL fresh media, then cells were either harvested (24 hour time point) or further incubated. To harvest, media was aspirated, and cells were washed once with PBS before detaching with trypsin. Trypsin was quenched with media. Cells were centrifuged at 300 xg for 3 minutes and supernatant was discarded. Cells were resuspended in media and counted using a Countess 3 automated cell counter (Thermo Fisher Scientific). 1.5×10^6 cells were collected, washed twice with 1 mL PBS, then pelleted and stored at −80° C. until lysis. Cell pellets were resuspended in 200 μL cold 70:30 methanol:water and placed on ice. Cell suspension was sonicated on ice (30%, 10 s on, 20 s off, 1 min total) and continued to be incubated on ice for 30 minutes. Lysate was clarified by centrifugation at 14,100 xg at 4° C. for 30 minutes. […]
row,SMILES,whole cell CS levels vs DMSO
1,"CN1C(=O)CC[C@@]2(C)C1=CC[C@@H]1[C@@H]2C(=O)C[C@]2(C)C(=O)CC[C@@H]12 [Compound 6, (4aR,4bS,6aS,9aS,9bS)-1,4a,6a-trimethyl-3,4,4a,6,6a,8,9,9a,9b,10-decahydro-1H-indeno[5,4-f]quinoline-2,5,7(4bH)-trione]",not seen

# Same assay, conditions: MCF-7, sub-lethal 0.156 μM, 72 hours
row,SMILES,whole cell CS levels vs DMSO
1,"O=CC1(C2(C=O)c3ccccc3-c3ccccc32)c2ccccc2-c2ccccc21 [Raptinal, reference compound]",no significant difference

# Target: SULT2B1b (Homo sapiens (Human), UniProt O00204)
# Sequence (O00204 whole entry): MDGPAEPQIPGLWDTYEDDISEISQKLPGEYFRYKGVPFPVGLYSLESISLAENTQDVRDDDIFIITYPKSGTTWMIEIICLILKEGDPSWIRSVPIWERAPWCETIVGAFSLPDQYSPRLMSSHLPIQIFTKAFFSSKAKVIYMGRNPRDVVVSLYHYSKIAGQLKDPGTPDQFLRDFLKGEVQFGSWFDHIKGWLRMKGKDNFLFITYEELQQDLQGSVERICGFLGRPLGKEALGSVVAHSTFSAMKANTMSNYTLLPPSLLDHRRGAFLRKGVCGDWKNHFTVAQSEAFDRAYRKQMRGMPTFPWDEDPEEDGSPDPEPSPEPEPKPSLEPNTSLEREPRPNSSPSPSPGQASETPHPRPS
# Experiment: LC-MS/MS based in vitro assay (DHEA-sulfate formation)
# Type: biochemical
# Conditions: 100 μM compound, 2 hours; mean±s.e.m., n=3
# Protocol: LC-MS/MS Based In Vitro Assay. Stock solutions of DHEA (5 mM in DMSO) and compound of interest (5 mM in DMSO) were prepared. […] SULT2B1b was diluted to 1.5 μg/μL in protein storage buffer then down to 0.8 μg/μL in 1× activity assay buffer. 30 μL of 0.8 μg/μL SULT2B1b was added to each reaction. Reactions were incubated for 2 hours at 37° C. with shaking at 250 rpm. To quench, 30 μL reaction mix was added to 30 μL ice cold 0.5% HCl in MeCN, then centrifuged at 13,000 xg at room temperature for 3 min. 50 μL supernatant was transferred to an empty Eppendorf tube and submitted for LC-MS/MS quantification (UIUC Metabolomics Center), along with 5 mM DHEA sulfate standard. Controls: Reaction mix made with DHEA and DMSO in place of compound of interest (DHEA control). […] General LC-MS/MS Quantification Method. Both DHEAS and CS samples were analyzed by 6500 QTRAP (Sciex, Redwood City, CA) liquid chromatography-tandem mass spectrometry. […] The flow rate was 0.3 mL/min. […] The source temperature was 400° C. […] Cholesterol-sulfate and DHEA-sulfate were detected by multiple reaction monitoring (MRM) at m/z 465→97.0 and 367.0→97.0 respectively. Software Analyst 1.7.1 ([…]) was used for data acquisition and analysis.
row,SMILES,inhibition at 100 µM [%]
1,"C[C@]12CCC(=O)N(Cc3ccc(Br)nc3)C1=CC[C@@H]1[C@@H]2C(=O)C[C@]2(C)C(=O)CC[C@@H]12 [Compound 11, (4aR,4bS,6aS,9aS,9bS)-1-((6-bromopyridin-3-yl)methyl)-4a,6a-dimethyl-3,4,4a,6,6a,8,9,9a,9b,10-decahydro-1H-indeno[5,4-f]quinoline-2,5,7(4bH)-trione]",53 ± 1
2,"C[C@]12CCC(=O)N(Cc3ccc(Cl)cc3)C1=CC[C@@H]1[C@@H]2CC[C@]2(C)C(=O)CC[C@@H]12 [Compound 9, (4aR,4bS,6aS,9aS,9bR)-1-(4-chlorobenzyl)-4a,6a-dimethyl-3,4,4a,4b,5,6,6a,8,9,9a,9b,10-dodecahydro-1H-indeno[5,4-f]quinoline-2,7-dione]",53 ± 1
3,"C[C@]12CCC(=O)N(Cc3ccc(F)cc3)C1=CC[C@@H]1[C@@H]2C(=O)C[C@]2(C)C(=O)CC[C@@H]12 [Compound 4, (4aR,4bS,6aS,9aS,9bS)-1-(4-fluorobenzyl)-4a,6a-dimethyl-3,4,4a,6,6a,8,9,9a,9b,10-decahydro-1H-indeno[5,4-f]quinoline-2,5,7(4bH)-trione]",55 ± 2
4,"C[C@]12CCC(=O)N(Cc3ccc(Cl)cc3)C1=CC[C@@H]1[C@@H]2C(=O)C[C@@]2(C)[C@H]1CCC21OCCO1 [Compound 10, (4aR,4bS,6aS,9aS,9bS)-1-(4-chlorobenzyl)-4a,6a-dimethyl-1,3,4,4a,4b,6,6a,8,9,9a,9b,10-dodecahydrospiro[indeno[5,4-f]quinoline-7,2′-[1,3]dioxolane]-2,5-dione]",45 ± 1
5,"CN1C(=O)CC[C@@]2(C)C1=CC[C@@H]1[C@@H]2C(=O)C[C@]2(C)C(=O)CC[C@@H]12 [Compound 6, (4aR,4bS,6aS,9aS,9bS)-1,4a,6a-trimethyl-3,4,4a,6,6a,8,9,9a,9b,10-decahydro-1H-indeno[5,4-f]quinoline-2,5,7(4bH)-trione]",8.8 ± 0.4
6,"C[C@]12CCC(=O)N(Cc3ccc4ccccc4c3)C1=CC[C@@H]1[C@@H]2C(=O)C[C@]2(C)C(=O)CC[C@@H]12 [Compound 12, (4aR,4bS,6aS,9aS,9bS)-4a,6a-dimethyl-1-(naphthalen-2-ylmethyl)-3,4,4a,6,6a,8,9,9a,9b,10-decahydro-1H-indeno[5,4-f]quinoline-2,5,7(4bH)-trione]",52 ± 10

# Next, values leading:
row,inhibition at 100 µM [%],SMILES
1,48 ± 2,"C[C@]12CCC(=O)N(Cc3ccccc3)C1=CC[C@@H]1[C@@H]2C(=O)C[C@]2(C)C(=O)CC[C@@H]12 [Compound 5, (4aR,4bS,6aS,9aS,9bS)-1-benzyl-4a,6a-dimethyl-3,4,4a,6,6a,8,9,9a,9b,10-decahydro-1H-indeno[5,4-f]quinoline-2,5,7(4bH)-trione]"
2,69.8 ± 0.5,"C[C@]12CCC(=O)N(Cc3cccc(Cl)c3)C1=CCC1[C@@H]2C(=O)C[C@]2(C)C(=O)CC[C@@H]12 (stereo partly drawn) [Compound 7, (4aR,4bS,6aS,9aS,9bS)-1-(3-chlorobenzyl)-4a,6a-imethy-3,4,4a,6,6a,8,9,9a,9b,10-decahydro-1H-indeno[5,4-f]quinoline-2,5,7(4bH)-trione]"
3,48 ± 2,"C[C@]12CCC(=O)N(CC3CCCCC3)C1=CC[C@@H]1[C@@H]2C(=O)C[C@]2(C)C(=O)CC[C@@H]12 [Compound 14, (4aR,4bS, 6aS, 9aS, 9bS)-1-(cyclohexylmethyl)-4a, 6a-dimethyl-3,4,4a, 6,6a, 8,9,9a, 9b,10-decahydro-1H-indeno[5,4-f]quinoline-2,5,7(4bH)-trione]"
4,46 ± 1,"C[C@]12CCC(=O)N(Cc3ccccc3Cl)C1=CC[C@@H]1[C@@H]2C(=O)C[C@]2(C)C(=O)CC[C@@H]12 [Compound 8, (4aR,4bS,6aS,9aS,9bS)-1-(2-chlorobenzyl)-4a,6a-dimethyl-3,4,4a,6,6a,8,9,9a,9b,10-decahydro-1H-indeno[5,4-f]quinoline-2,5,7(4bH)-trione]"
5,27 ± 2,"C[C@]12CCC(=O)N(CC3CC3)C1=CC[C@@H]1[C@@H]2C(=O)C[C@]2(C)C(=O)CC[C@@H]12 [Compound 13, (4aR,4bS,6aS,9aS,9bS)-1-(cyclopropylmethyl)-4a,6a-dimethyl-3,4,4a, 6,6a, 8,9,9a, 9b,10-decahydro-1H-indeno[5,4-f]quinoline-2,5,7(4bH)-trione]"

# Tested on: free cholesterol levels in MCF-7
# Experiment: Whole cell cholesterol assay
# Type: cell-based, human
# Conditions: MCF-7, 6.25 μM, 72 hours
# Protocol: Whole Cell Cholesterol Assay. Assay was run according to manufacturer's instructions. Briefly, 5000 MCF-7 cells were plated in 99 μL media in a 96-well plate and allowed to adhere overnight before DMSO solutions of compounds were added to each well. Final concentration of DMSO in each well is 1%, final volume: 100 μL. At the end of 72 hours, media was aspirated, and cells were washed twice with 100 μL PBS. 50 μL of cholesterol lysis solution was added and cells were incubated for 30 minutes at 37° C. 50 μL of sample was then transferred to a 96-well white walled assay plate. 50 μL of cholesterol detection reagent was added to all wells and incubated at room temperature for 1 hour. Luminescence was read using a SpectraMax M3 plate reader (Molecular Devices). Cholesterol levels were determined by use of a cholesterol standard curve.
row,SMILES,free cholesterol levels vs DMSO
1,"CN1C(=O)CC[C@@]2(C)C1=CC[C@@H]1[C@@H]2C(=O)C[C@]2(C)C(=O)CC[C@@H]12 [Compound 6, (4aR,4bS,6aS,9aS,9bS)-1,4a,6a-trimethyl-3,4,4a,6,6a,8,9,9a,9b,10-decahydro-1H-indeno[5,4-f]quinoline-2,5,7(4bH)-trione]",no statistical difference
